Columns and labels:
[1] = system: hypertriglyceridaemia induced in the rat; assay: Protection against experimental hypertriglyceridaemia (fructose) in the rat; assay type: in vivo; details: fructose 3 g/kg oral; for Hypertriglyceridaemia (blood triglycerides): five hours after, oral treatment three days before and three hours after
Source text: The method used for this test was that described by Carlson (Carlson L. A. V., J. Atheroscl. Res., 8:667, 1968) and modified as described in Atherosclerosis, 16:349, 1972. According to this test oral administration of 3 g/kg of fructose in the rat induces a substantial increase in both liver and serum triglycerides five hours after administration.
The aim of this test was to assess whether the administration of the components of the composition according to the invention, when used alone or in combination, were capable of leading to a reduction in this triglyceride abnormality which is regarded as underlying severe liver dysfunctions as well as atherosclerosis.
To this end, various groups of rats were treated with glutathione (G=50 mg/kg), with propionyl L-carnitine (PC=50 mg/kg), or with yeast containing 10% glutathione (YG=500 mg/kg), or with an amino acid mixture (AA=glutamic acid 50 mg/kg, cysteine 25 mg/kg, glycine 100 mg/kg+magnesium 5 mg/kg), or with a combination of these various components (at the same doses) without yeast (CC) or with yeast (CYC). The treatment was given orally on the three days preceding fructose administration and for three hours after its administration. Five hours after fructose administration all animals were sacrificed and blood samples were used to assay triglycerides according to the method described by Donabedian (Donabedian R. K., Clin. Chem., 20:632, 1974).

[2] = system: increase in liver triglycerides induced by CCl4; assay: Carbon tetrachloride-induced liver intoxication tests (liver triglycerides); assay type: in vivo; details: rats, CCl4 1 ml.kg^-1 i.p. (20% in olive oil), treated three consecutive days before
Protocol: Another indicator of CCl4 toxicity in the liver is provided by the increased hepatic concentration of triglycerides.
The CCl4 intoxication was induced by giving fasting rats an intraperitoneal injection of 1 ml.kg^-1 of a suspension of 20% CCl4 in olive oil. Prior to CCl4 intoxication the rats were treated for three consecutive days with glutathione (G=50 mg/kg), or with propionyl L-carnitine (PC=100 mg/kg), or with yeast containing 10% glutathione (YG=500 mg/kg), or with a combination of amino acids (AA=glutamic acid 50 mg, cysteine 25 mg, glycine 50 mg, magnesium 5 mg). or with the complete combination CC (CC=PC+G+AA), or with the complete yeast combination CYC (CYC=PC+YG+AA). After administration of CCl4, the livers were excised from the decapitated animals and were used to measure the triglyceride concentration according to the method described by Donabedian (Donabedian R. K., Clin. Chem., 20:632, 1974).

[3] = system: acetaminophen-induced mortality; assay: Acetaminophen (paracetamol) induced toxicity tests; assay type: in vivo; details: mice; for Protection against the mortality induced by acetaminophen (in words): acetaminophen 600 mg/kg
Protocol: Various groups of male mice received oral administrations of 600 mg/kg acetaminophen, which is a dose sufficient to cause death within 24 hours in 50% of the animals thus treated.
At the same time as the acetaminophen administration, one group of animals (group G) were administered glutathione (G) and a second (group YG) were administered yeast containing 10% glutathione (YG); a third group (group PC) were administered propionyl L-carnitine (PC); a fourth group (group AA) were administered a combination of glutamic acid, cysteine, glycine and magnesium (AA); a fifth group (group CC) were administered a first combination according to the invention, called the "complete combination" (CC), consisting of PC+G+AA, while a sixth group (group CYC) were administered a second combination according to the invention, called the "complete yeast combination" (CYC), consisting of PC+YG+AA.
These synergistic effects appear even more marked when the mice are administered a 900 mg/kg acetaminophen dose, which causes the deaths of 100% of the animals. In this case, only administration of the complete yeast combination, CYC, protects more than 50% of the animals treated against death (see Table 2).
The protection against acetaminophen at the dose of 900 mg/kg afforded by the new composition was even more marked when the animals were treated for 7 consecutive days prior to acetaminophen administration with the various components of the combination (see Table 3).

[4] = system: CCl4-intoxicated liver cell cultures; assay: Carbon tetrachloride (CCl4) intoxication tests on isolated rat liver cells; assay type: cell-based; details: for Toxic effects of carbon tetrachloride (in words): CCl4 10 mmol.L^-1
Source text: The cells used in these tests were isolated rat liver cells after perfusion with collagenase according to the method described by Seglen (Seglen F. O., Method Cell. Biol. Chem. 264:4747, 1989). Approximately 4-6×10^8 viable liver cells were collected, calculated by exclusion of non-viable cells by means of trypan blue.
The cells thus isolated were suspended in 25 cm^2 plastic receptacles in the presence of antibiotics and 10% inactivated fetal calf serum. To the cell suspension thus obtained was added CCl4 (10 mmol.L^-1), glutathione (GSH 20 mg.L^-1), propionyl L-carnitine (100 mg.L^-1) or glutathione combined with propionyl L-carnitine. After a 4-h incubation the percentage of dead cells was estimated by release of lactate dehydrogenase, as described by Casini et al. (Casini et al., J. Biol. Chem., 257:6721, 1982).
The cytological examination of the liver cells was done under both the light and electron microscope after fixation in 3% formalin and paraffin for light microscopy and 3% glutaraldehyde and 1% osmium tetroxide for electron microscopy.

[5] = system: glutathione (GSH) concentration; assay: Effects on glutathione (GSH) concentration in young and elderly rats; assay type: in vivo
Protocol: Since the metabolic and enzymatic activity of glutathione is known to be reduced in elderly rats and this reduction is regarded as one of the causes of ageing, the effect of the administration of the new composition or its individual components on glutathione concentrations in the plasma and liver of young and elderly rats was evaluated.
For this test two different groups of rats were used: young rats (2-3 months) and elderly rats (8-10 months). The glutathione (GSH) concentration was calculated in both groups according to the technique described by Moron (Moron M. S., Biochem. Biophys. Acta, 582:67, 1979) both before the start of the test and after 15 days' daily administration of propionyl L-carnitine (100 mg/kg), glutathione (50 mg/kg), propionyl L-carnitine with glutathione or with yeast containing 10% glutathione (500 mg/kg), amino acids (500 mg/kg) or the combination according to the invention.

[6] = system: glycerol-induced kidney failure; assay: Activity against glycerol-induced nephropathy; assay type: in vivo, Male Sprague-Dawley rats; details: for Protective effect against glycerol-induced kidney lesions (in words): rat; for Urea: rat plasma 24 hours after glycerol injection (10 cc/kg of 50% w/v), treated daily three days before
Protocol: The method used in this test was that described by Young (Young J. H. K., Meth. Find. Exp. Clin. Pharmacol., 13:23, 1991). According to this test, a glycerol injection induces kidney failure and nephropathy in the rat. This method was used to assess the protective effects of the combination according to the invention on the kidney. Male Sprague-Dawley rats were used, which, after being deprived of drinking water for 24 hours, were injected with 10 cc/kg of a 50% w/v solution of glycerol and water. After the injection, the animals thus treated were allowed to drink. After 24 hours, blood samples were taken from the animals and, after centrifuging, the plasma creatinine concentration was assayed (according to the method described by Taussky H. H., Clin. Chem. Acta, 1:210, 1956) and urea by means of reaction with diacetylmonoxime (Henry R. Y., Cannon D. C. Eds., Clinical Chemistry, 2 Ed. Harper & Rowe, London 1974). Propionyl L-carnitine (100 mg/kg), glutathione (50 mg/kg) or yeast containing glutathione (500 mg/kg), amino acids (25 mg/kg each), yeast (500 mg/kg) and a combination of these at the same doses were administered daily on the three days preceding the test.

[7] = system: glutathione-depleted rats; assay: Glutathione uptake and concentration in blood of glutathione-depleted (DEM) animals; assay type: in vivo, Sprague-Dawley male rats; details: rats depleted with diethylmaleate (DEM) 1 cc/kg i.p.; oral treatment half an hour after; measured 4 h after
Protocol: To this end, the glutathione content in the blood of a group of Sprague-Dawley male rats was reduced by means of the administration of diethylmaleate (DEM)a depletor of glutathione, according to the technique described by Plummer (Plummer J., Chemical depletion of glutathione "in vivo", Methods in Enzymology, 77:50, 1981). DEM was administered intraperitoneally to fasting rats at the dose of 1 cc/kg. Half an hour after injection of diethylmaleate, glutathione alone (50 mg/kg), or yeast containing 10% glutathione (500 mg/kg), or 50 mg/kg of glutathione together with 500 mg of yeast not containing glutathione were administered orally. Another group of rats received glutathione amino acid precursors (glutamic acid 50 mg/kg, glycine 50 mg/kg, cysteine 50 mg/kg, magnesium 10 mg/kg) or the complete combination according to the invention at the same doses as described here above.
After four hours blood samples were taken from the animals thus treated and the plasma glutathione concentration was measured.

[8] = acetaminophen 900 mg/kg, dead/total, Table 2
[9] = acetaminophen 900 mg/kg, dead/total, table at the place of Table 3, printed as a repeat of TABLE 2
[10] = oral acetaminophen 600 mg/kg, substance given at the same time, mortality 24 hours after treatment (dead/total), Table 1
[11] = CCl4-intoxicated liver cell cultures, table at the place of Table 5, printed as a repeat of TABLE 4
[12] = isolated rat liver cells, CCl4 10 mmol.L^-1, 4-h incubation, lactate dehydrogenase release, GSH 20 mg.L^-1, propionyl L-carnitine 100 mg.L^-1, Table 4
[13] = elderly rats (8-10 months), liver, after 15 days' daily administration, Table 9
[14] = elderly rats (8-10 months), liver, before the start of the test, Table 9
[15] = elderly rats, 15 days, table at the place of Table 10, printed as a repeat of TABLE 9
[16] = elderly rats, time 0, table at the place of Table 10, printed as a repeat of TABLE 9
[17] = young rats (2-3 months), liver, after 15 days' daily administration, Table 9
[18] = young rats (2-3 months), liver, before the start of the test, Table 9
[19] = young rats, 15 days, table at the place of Table 10, printed as a repeat of TABLE 9
[20] = young rats, time 0, table at the place of Table 10, printed as a repeat of TABLE 9

| SMILES | Efficacy on serum triglyceride levels induced by fructose (in words) [1] | Hypertriglyceridaemia (blood triglycerides) [1] [mg/100 ml] | Triglycerides (liver) [2] [mg/g] | Protection against the mortality induced by acetaminophen (in words) [3] | Mortality [3, 8] | Mortality [3, 9] | Mortality [3, 10] | % dead cells [4, 11] [%] | Toxic effects of carbon tetrachloride (in words) ([4]; isolated rat liver cells) | % dead cells [4, 12] [%] | Glutathione concentration in liver, elderly rats, time 15 days [5, 13] [GSH ng/mg protein] | Glutathione concentration in liver, elderly rats, time 0 [5, 14] [GSH ng/mg protein] | Glutathione concentration in liver, elderly rats, time 15 days [5, 15] [GSH ng/mg protein] | Glutathione concentration in liver, elderly rats, time 0 [5, 16] [GSH ng/mg protein] | Glutathione concentration in liver, young rats, time 15 days [5, 17] [GSH ng/mg protein] | Glutathione concentration in liver, young rats, time 0 [5, 18] [GSH ng/mg protein] | Glutathione concentration in liver, young rats, time 15 days [5, 19] [GSH ng/mg protein] | Glutathione concentration in liver, young rats, time 0 [5, 20] [GSH ng/mg protein] | Protective effect against glycerol-induced kidney lesions (in words) [6] | Urea [6] [mg/100 ml] | also measured |
| --- | --- | --- | --- | --- | --- | --- | --- | --- | --- | --- | --- | --- | --- | --- | --- | --- | --- | --- | --- | --- | --- |
| N[C@@H](CCC(=O)N[C@@H](CS)C(=O)NCC(=O)O)C(=O)O [G, N-(N-L-L-γ-glutamyl-cysteinyl) glycine] | small efficacy | 180 ± 5.9 | 18.7 ± 2.1 | partial protection | 7/10 | 7/10 | 4/10 | 55 ± 5 | capable of reducing the toxic effects of carbon tetrachloride | 55 ± 5 | 9.90 ± 0.76 | 8.82 ± 0.69 | 9.90 ± 0.76 | 8.82 ± 0.69 | 12.85 ± 0.66 | 12.1 ± 0.36 | 12.85 ± 0.66 | 12.1 ± 0.36 | fairly good protective effect | 79.9 ± 9.9 | Glutathione (GSH) concentration in plasma [7]: 0.95 ± 0.88 mg/dL |
| CCC(=O)O[C@H](CC(=O)[O-])C[N+](C)(C)C [PC, Propionyl L-carnitine] | small efficacy | 185 ± 7.1 | 20.2 ± 1.9 | no such protection | 10/10 | 10/10 | 6/10 | 70 ± 7 | capable of reducing the toxic effects of carbon tetrachloride | 70 ± 7 | 9.3 ± 0.46 | 7.9 ± 0.51 | 9.3 ± 0.46 | 7.9 ± 0.51 | 12.90 ± 0.71 | 11.25 ± 0.41 | 12.90 ± 0.71 | 11.25 ± 0.41 | fairly good protective effect | 88.5 ± 11.5 | Glutathione (GSH) concentration in plasma [7]: 0.70 ± 0.54 mg/dL |

Source: US6306392A, “Composition comprising a carnitine and glutathione, useful to increase the absorption of glutathione and synergize its effects” (Sigma-Tau Healthscience S.p.A., priority 1999, dated 2001)
